Results taken from patent US20080293698A1, “Methods and Compositions for Treating Arg” (priority 2005, published 2008).
Where “and” joins values, the source holds several entries; their conditions need not be identical. Equal entries are not always repeated. Structures can show the parent of a compound that is named as a salt.

Columns and labels:
GHB receptor = details: reported in United States patent application 20020132846; cited from earlier work
human subjects = experiment: 4-HPA and 4-HPA lactone administered to human subjects (Example 53); details: for effects experienced by the subjects: at equivalent doses of GHB toxicity or sleep would have occurred
patients = details: therapeutic doses, GHB as lone agent; cited from earlier work
[1] = tested on: patient with a sleeping disorder; experiment: Case report: patient with a sleeping disorder treated with alprazolam, zolpidem, gabapentin and NaGHB (Example 86); type: in vivo, human
Procedure: Overnight polysomnography had shown minimal obstructive sleep apnea with 2 apneas per hour of sleep. The patient was placed on a regimen of the Class III agent alprazolam, the Class IV agent zolpidem, the Class V agent gabapentin, and the Class II agent the sodium salt of gamma-hydroxyl butyric acid (GHB), which were administered prior to sleep for the treatment of sleeping disorders. The initial dose of GHB was prescribed as 2.25 grams prior to sleep and repeat dose of 2.25 grams to be taken 2.5 to 4 hours after sleep onset.
At a dose of 3 grams prior to sleep and a second dose upon awakening, the patient was eating only one to two small meals per day. Their maximum previous weight had been 169 lbs and their baseline weight was 159 pounds. They lost weight down to 145 lbs and looked gaunt. They believed that the GHB had suppressed their appetite and consulted an endocrinologist, who did a thorough medical evaluation including an am cortisol, a comprehensive chemistry profile, a CBC, and thyroid studies, all of which were normal. The patient discontinued the GHB and their appetite returned within two days. Over roughly five months, they then gained weight up to 195 lbs and their weight remained stable.

patient with ARG = experiment: Case reports: patients with ARG treated with GABAnergic agents prior to sleep; type: in vivo, human
Text: The patient was then switched to monotherapy using only NaGHB 4.5 grams prior to the intended sleep time and a second dose of 4.5 grams four hours after the first. […] The patient was switched back to treatment with multiple GABAnergic agents and again had dramatic reduction in fatigue. On a scale from 0 to 10 where 10 is the most tired, the patient rated the fatigue at 10 without treatment, 3 to 4 with treatment on multiple GABAnergic agents, and 10 on monotherapy with NaGHB.
A patient with ARG was treated with the Class IV agent zolpidem 10 mg, The Class III agent alprazolam 2 mg, the Class V agent gabapentin 200 mg, and the Class II agent sodium salt of gamma-hydroxyl butyrate 5.25 grams prior to sleep. The patient was treated chronically on a nightly basis. Sometimes, according to the patient's judgement, 3.75 grams of the sodium salt of gamma-hydroxyl butyric acid was consumed upon awakening, which usually was about six hours after the first dose of medications.
In another example a patient with ARG was given the Class I agent 660 ml red wine 13.5% alcohol by volume, the Class III agent alprazolam 3 mg, the Class V agent gabapentin 300 mg, and the Class IV agent 10 mg zolpidem. Five hours later, the patient was awoken and given the Class II agent the sodium salt of gamma-hydroxyl butyric acid 3 grams.
In another example a patient with ARG was treated with the Class I agent 660 ml red wine 13.5% alcohol by volume, the Class I agent liqeur 30% alcohol by volume 200 ml, the Class III agent alprazolam 2 mg, the […] 200 mg, and the Class II agent the sodium salt of gamma-hydroxyl butyric acid 4 grams prior to sleep.
A patient with acquired resistance to GABAnergic agents was treated with the Class III agent alprazolam 2 mg, the Class IV agent zolpidem 10 mg, the Class V agent gabapentin 200 mg, and the Class II agent NaGHB 7 grams. […] 7 grams NaGHB as a single dose is a large dose, which may be too toxic for some patients.
A patient with acquired resistance to GABAnergic agents was treated with the Class I agent red wine 660 ml 13.5% alcohol by volume, then the Class III agent alprazolam 3 mg, the Class V agent gabapentin 300 mg, the Class IV agent zolpidem 10 mg, and the Class II agent NaGHB 9 grams. 4 hours after sleep onset the patient awoke in a neighboring room in a pool of vomitus of partially digested wine. The patient was lucid and had mild nausea. The patient went back to sleep in bed for an additional 2 hours and was able to work the next day. […] The combination of red wine and such large doses of GHB are not typically recommended by the inventor and can be fatal.
A patient with ARG was given the Class III agent alprazolam 7 mg, the Class IV agent zolpidem 10 mg, and the Class V agent gabapentin 300 mg prior to sleep. […] The dose of alprazolam may be reduced by adding a Class I or Class II agent to the regimen.
A patient with ARG who had minimal obstructive sleep apnea was chronically treated with the Class I agent red wine about 200 to 1500 ml 13.5% alcohol by volume, the Class IV agent zolpidem 10 mg, the Class III agent alprazolam 3 mg, and the Class V agent gabapentin 300 mg prior to sleep. Sufficient wine was consumed to produce moderate to strong sleepiness and then the other GABAminergic medications were consumed. When the volume of wine on a particular night required to induce strong sleepiness was inconvenient, the patient quickly drank liqeur 30% alcohol by volume, typically about 160 ml, in order to induce strong sleepiness.
A patient with ARG who had minimal obstructive sleep apnea was chronically treated with the Class I agent red wine about 660 to 1500 ml about 13% alcohol by volume, the Class IV agent zolpidem 10 mg, the Class III agent alprazolam 3 mg, and the Class V agent gabapentin 300 mg prior to sleep. Sufficient wine was consumed to produce moderate to strong sleepiness and then the other GABAnergic medications were consumed. […]

[2] = Chemical stability of GHB as a function of pH (cyclization to GBL); type: physicochemical
pH of NaGHB solution = type: physicochemical; details: 240 mg per ml
Procedure: The pH of NaGHB at 240 mg per ml is approximately 9.5, at which neither pathogenic nor non-pathogenic organisms grow. As the concentration of NaGHB is increased, the pH is yet higher. […] Concentrated NaGHB is highly toxic regardless of pH and must be diluted prior to consumption. The pH of NaGHB at 500 mg/ml drops rapidly into the physiologic range upon dilution. Highly concentrated GBL and 1,4-butanediol are known to be resistant to microbial growth, require no special storage procedures, and likewise must be diluted prior to consumption, typically to 5% to 30% solutions but more preferably 5% to 20%.

[3] = tested on: patients with fibromyalgia; details: 3 grams NaGHB at bedtime and a second dose about 4 h later; cited from earlier work
[4] = tested on: patients with fibromyalgia or chronic fatigue syndrome; details: cited from earlier work

CC1CCC(=O)O1 (stereo not drawn) [4-HPA lactone, 4-hydroxyl pentanoic acid lactone]
binding to the GHB receptor (GHB receptor): bind the GHB receptor | toxicity compared with GHB (human subjects): less toxic than GHB | effects experienced by the subjects (human subjects): relaxing effects

CC(O)CCC(=O)O (stereo not drawn) [Example 4-HPA, 4-hydroxyl pentanoic acid]
toxicity compared with GHB (human subjects): less toxic than GHB | effects experienced by the subjects (human subjects): relaxing effects

O=C(O)CCCO [GHB, gamma hydroxyl butyric acid]
duration of the sleep inducing effect (patients): 2 to 3 h and 2 to 4 h | sleep induction by the second dose of GHB ([1]; 3.75 grams upon awakening): usually did not induce sleep | body weight on treatment ([1]; baseline weight 159 pounds, 3 grams prior to sleep and a second dose upon awakening): 145 lbs | medical evaluation (am cortisol, comprehensive chemistry profile, CBC, thyroid studies) ([1]; during weight loss on GHB): normal | time to return of appetite after discontinuing GHB ([1]; human, in vivo): two | appetite ([1]; within one week of beginning to take the GHB): marked decrease in appetite | sleep induction by the second dose of GHB (patient with ARG; 3.75 grams upon awakening, about six hours after the first dose of medications): usually did not induce sleep | pH at which gamma-butyryl lactone (cyclized form) begins to form [2]: ≤ 6

O=C(O)CCCO [NaGHB, sodium salt of gamma-hydroxyl butyric acid]
pH of the solution (pH of NaGHB solution): approximately 9.5 | patients in the treatment arm who withdrew due to side effects [3]: Six of 24 | sleep obtained per dose ([4]; 2.25 grams NaGHB at bedtime and again four hours later, in some instances): 2 to 3 h | effect in patients diagnosed with chronic fatigue syndrome ([4]; pilot open label trial, quoted from document C): no effect | improvement on monotherapy (patient with ARG; NaGHB 4.5 grams twice per sleep period, no other GABAnergic agent): no improvement | sleep induction by the first dose (patient with ARG; monotherapy, NaGHB 4.5 grams prior to the intended sleep time): did not induce sleep at all | duration of sleep induced by the second dose (patient with ARG; monotherapy, second dose of 4.5 grams four hours after the first): two | side effects / toxicity (patient with ARG; patient with ARG on the regimen): state of near stupor | fatigue rated by the patient (patient with ARG; scale from 0 to 10 where 10 is the most tired, 10 without treatment): 10

cyanocobalamin
fatigue on the increased dose of cyanocobalamin (patient with ARG; 2000 mcg IM about every three days, in addition to multiple GABAnergic agents): mild decrease in fatigue | mouth sores under vitamin treatment (patient with ARG; cyanocobalamin 500 mcg IM once, 'rotate' 5 mg orally, multivitamin containing thiamine 1.5 mg, patient on Example 90a regimen): resolved
